Assay results taken from ChEMBL document CHEMBL1201862, “PubChem BioAssay data set” (2004).
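Five compound concentrations were applied to cells in 96-well plates for 48 hours; endpoints were derived by simple linear interpolation of the resulting dose-response curve. GI50 = concentration required for 50% inhibition of growth.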 Calls of active or inactive are those of the source. No stated cut-off is given here; in the data, active = GI50 up to about 1.1 µM and inactive = higher.

Key:
Experiment in all cases: DTP human tumour cell line panel, 48 h
[1] = tested on: A498
[2] = tested on: COLO 205
[3] = tested on: DU-145
[4] = tested on: HOP-92
[5] = tested on: K562
[6] = tested on: LOX IMVI
[7] = tested on: MDA-MB-435
[8] = tested on: NCI-H23
[9] = tested on: NCI/ADR-RES
[10] = tested on: OVCAR-8
[11] = tested on: RPMI-8226
[12] = tested on: RXF 393
[13] = tested on: SF-268
[14] = tested on: SF-295
[15] = tested on: SR
[16] = tested on: TK-10
[17] = tested on: U-251
[18] = tested on: UACC-257
[19] = tested on: UO-31
[20] = tested on: NCI-H522

Compound: OC1(c2ccc(Cl)cc2)c2c(c3ccccc3c3ccccc23)C2=NCCN21 (configuration not stated)
- GI50 [1]: 19.1 µM (inactive)
- GI50 [2]: 28.2 µM (inactive)
- GI50 [3]: 17.4 µM (inactive)
- GI50 [4]: 16.6 µM (inactive)
- GI50 [5]: 37.3 µM (inactive)
- GI50 [6]: 24.1 µM (inactive)
- GI50 [7]: 29.7 µM (inactive)
- GI50 [8]: 11.6 µM (inactive)
- GI50 [9]: 11.5 µM (inactive)
- GI50 [10]: 11.9 µM (inactive)
- GI50 [11]: 34.4 µM (inactive)
- GI50 [12]: 11.4 µM (inactive)
- GI50 [13]: 10.6 µM (inactive)
- GI50 [14]: 11.5 µM (inactive)
- GI50 [15]: 4.42 µM (inactive)
- GI50 [16]: 4.98 µM (inactive)
- GI50 [17]: 12.8 µM (inactive)
- GI50 [18]: 20.4 µM (inactive)
- GI50 [19]: 10.7 µM (inactive)

Compound: O=C(/C=C/c1ccc2c(c1)OCO2)CC(=O)/C=C/c1ccc2c(c1)OCO2
- GI50 [2]: > 100 µM (inactive)
- GI50 [3]: > 10 µM (inactive)
- GI50 [5]: 80.2 µM (inactive)
- GI50 [6]: 12.1 µM (inactive)
- GI50 [7]: > 100 µM (inactive)
- GI50 [8]: 19.6 µM (inactive)
- GI50 [20]: 45 µM (inactive)
- GI50 [9]: 69.3 µM (inactive)
- GI50 [11]: > 100 µM (inactive)
- GI50 [12]: 87.7 µM (inactive)
- GI50 [13]: > 10 µM (inactive)
- GI50 [14]: > 100 µM (inactive)
- GI50 [15]: 39.1 µM (inactive)
- GI50 [16]: > 100 µM (inactive)
- GI50 [17]: 91.4 µM (inactive)
- GI50 [19]: > 100 µM (inactive)

Compound: Cn1c2c(c3ccccc31)CCN=C2C1CCCOC1=O (configuration not stated)
- GI50 [1]: > 100 µM (inactive)
- GI50 [2]: > 100 µM (inactive)
- GI50 [3]: > 100 µM (inactive)
- GI50 [4]: 45.4 µM (inactive)
- GI50 [6]: > 100 µM (inactive)
- GI50 [7]: > 100 µM (inactive)
- GI50 [20]: > 100 µM (inactive)
- GI50 [9]: > 100 µM (inactive)
- GI50 [10]: > 100 µM (inactive)
- GI50 [12]: > 100 µM (inactive)
- GI50 [13]: > 100 µM (inactive)
- GI50 [15]: > 100 µM (inactive)
- GI50 [16]: > 100 µM (inactive)
- GI50 [17]: > 100 µM (inactive)
- GI50 [18]: > 100 µM (inactive)
- GI50 [19]: 43.5 µM (inactive)

Compound: COc1ccc2[nH]c3c(C)c4cnccc4c(C)c3c2c1
- GI50 [2]: 1.58 µM (inactive)
- GI50 [3]: 2.93 µM (inactive)
- GI50 [4]: 5.4 µM (inactive)
- GI50 [5]: 2.4 µM (inactive)
- GI50 [7]: 1.48 µM (inactive)
- GI50 [8]: 6.25 µM (inactive)
- GI50 [20]: 2.02 µM (inactive)
- GI50 [9]: 1.22 µM (inactive)
- GI50 [10]: 1.01 µM (active)
- GI50 [11]: 2.95 µM (inactive)
- GI50 [12]: 2.49 µM (inactive)
- GI50 [13]: 2.75 µM (inactive)
- GI50 [14]: 3.3 µM (inactive)
- GI50 [15]: 3.57 µM (inactive)
- GI50 [16]: 5.69 µM (inactive)
- GI50 [17]: 1.72 µM (inactive)
- GI50 [18]: 4.07 µM (inactive)

Compound: CCN(CC)Cc1ccc(C(=S)Nc2ccc(Cl)cc2)s1
- GI50 [1]: 12 µM (inactive)
- GI50 [2]: 1.99 µM (inactive)
- GI50 [3]: 15 µM (inactive)
- GI50 [5]: 1.87 µM (inactive)
- GI50 [6]: 4.82 µM (inactive)
- GI50 [7]: 9.91 µM (inactive)
- GI50 [8]: 2.34 µM (inactive)
- GI50 [20]: 11.4 µM (inactive)
- GI50 [9]: 7.45 µM (inactive)
- GI50 [10]: 3.75 µM (inactive)
- GI50 [11]: 6.31 µM (inactive)
- GI50 [13]: 11.3 µM (inactive)
- GI50 [14]: 9.91 µM (inactive)
- GI50 [15]: 3.64 µM (inactive)
- GI50 [17]: 12 µM (inactive)
- GI50 [18]: 4.81 µM (inactive)
- GI50 [19]: 11.4 µM (inactive)

Compound: CNC(=O)CCNC(=O)CCC(=O)N(C)C
- GI50 [1]: > 100 µM (inactive)
- GI50 [2]: > 100 µM (inactive)
- GI50 [3]: > 100 µM (inactive)
- GI50 [5]: > 100 µM (inactive)
- GI50 [7]: > 100 µM (inactive)
- GI50 [8]: > 100 µM (inactive)
- GI50 [20]: 2.77 µM (inactive)
- GI50 [9]: > 100 µM (inactive)
- GI50 [10]: > 100 µM (inactive)
- GI50 [11]: > 100 µM (inactive)
- GI50 [12]: > 100 µM (inactive)
- GI50 [13]: > 100 µM (inactive)
- GI50 [14]: > 100 µM (inactive)
- GI50 [15]: 0.951 µM (active)
- GI50 [16]: > 100 µM (inactive)
- GI50 [17]: > 100 µM (inactive)
- GI50 [19]: > 100 µM (inactive)
